# Measurements from PubChem BioAssay AID2060512 (Molecular Pharmacology Branch, DTP, NCI, 2025).
# System: 186277-243-T-J2-PDC complex spheroid viability
# Test: Anticancer human tumor 186277-243-T-J2-PDC patient-derived colon adenocarcinoma cell line growth inhibition [GQUAD]
# Conditions: for IC50: curve of first compound; for viability, T/C: stronger effect = lower value
# How it was run: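 Multi-cell-type spheroids of tumor cells with HUVEC and mesenchymal stem cells, treated with drug combinations. Concentrations descend in half-log steps from near clinical Cmax, or from 10 microM where Cmax is unknown; viability read-out.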
# [1] = second compound 0.0316 µM, first compound 0.0316 µM
# [2] = second compound 0.0316 µM, first compound 0.316 µM
# [3] = second compound 0.1 µM, first compound 0.0316 µM
# [4] = second compound 0.1 µM, first compound 0.316 µM
# [5] = second compound 0.316 µM, first compound 0.0316 µM
# [6] = second compound 0.316 µM, first compound 0.316 µM
# [7] = second compound 1 µM, first compound 0.0316 µM
# [8] = second compound 1 µM, first compound 0.316 µM
# [9] = second compound 3.16 µM, first compound 0.0316 µM
# [10] = second compound 3.16 µM, first compound 0.316 µM
# [11] = second compound 10 µM, first compound 0.0316 µM
# [12] = second compound 10 µM, first compound 0.316 µM
# 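Note: spheroids exposed to drugs for 7 days.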
# 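Throughout, for viability, T/C: 100% = DMSO vehicle control viability.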
structure (smiles),measurement,setting,value
Cn1ncnc1[C@H]1c2n[nH]c(=O)c3cc(F)cc(c23)N[C@@H]1c1ccc(F)cc1 + Cc1[nH]c2ccc(F)cc2c1-c1nc2c3cccnc3c3ncccc3c2[nH]1,IC50,second compound 0.0316 µM,> 0.316 µM
same,IC50,second compound 0.1 µM,> 0.316 µM
same,IC50,second compound 0.316 µM,> 0.316 µM
same,IC50,second compound 1 µM,> 0.316 µM
same,IC50,second compound 3.16 µM,> 0.316 µM
same,IC50,second compound 10 µM,> 0.316 µM
same,"viability, T/C","second compound 0.0316 µM, first compound 0.000999 µM",112%
same,"viability, T/C","second compound 0.0316 µM, first compound 0.00316 µM",99.2%
same,"viability, T/C","second compound 0.0316 µM, first compound 0.00999 µM",94.8%
same,"viability, T/C",[1],94.2%
same,"viability, T/C","second compound 0.0316 µM, first compound 0.0999 µM",98.1%
same,"viability, T/C",[2],89.3%
same,"viability, T/C","second compound 0.1 µM, first compound 0.000999 µM",93.5%
same,"viability, T/C","second compound 0.1 µM, first compound 0.00316 µM",98.2%
same,"viability, T/C","second compound 0.1 µM, first compound 0.00999 µM",101%
same,"viability, T/C",[3],91.7%
same,"viability, T/C","second compound 0.1 µM, first compound 0.0999 µM",84.5%
same,"viability, T/C",[4],95.6%
same,"viability, T/C","second compound 0.316 µM, first compound 0.000999 µM",86.3%
same,"viability, T/C","second compound 0.316 µM, first compound 0.00316 µM",93.1%
same,"viability, T/C","second compound 0.316 µM, first compound 0.00999 µM",96.7%
same,"viability, T/C",[5],103%
same,"viability, T/C","second compound 0.316 µM, first compound 0.0999 µM",91.7%
same,"viability, T/C",[6],88.7%
same,"viability, T/C","second compound 1 µM, first compound 0.000999 µM",85.5%
same,"viability, T/C","second compound 1 µM, first compound 0.00316 µM",101%
same,"viability, T/C","second compound 1 µM, first compound 0.00999 µM",98.4%
same,"viability, T/C",[7],102%
same,"viability, T/C","second compound 1 µM, first compound 0.0999 µM",102%
same,"viability, T/C",[8],89.6%
same,"viability, T/C","second compound 3.16 µM, first compound 0.000999 µM",103%
same,"viability, T/C","second compound 3.16 µM, first compound 0.00316 µM",97.7%
same,"viability, T/C","second compound 3.16 µM, first compound 0.00999 µM",113%
same,"viability, T/C",[9],104%
same,"viability, T/C","second compound 3.16 µM, first compound 0.0999 µM",87.5%
same,"viability, T/C",[10],95%
same,"viability, T/C","second compound 10 µM, first compound 0.000999 µM",105%
same,"viability, T/C","second compound 10 µM, first compound 0.00316 µM",103%
same,"viability, T/C","second compound 10 µM, first compound 0.00999 µM",101%
same,"viability, T/C",[11],107%
same,"viability, T/C","second compound 10 µM, first compound 0.0999 µM",82.1%
same,"viability, T/C",[12],86.4%
CC(C)n1c(=O)n(C)c2cnc3cc(F)c(-c4ccc(OCCCN5CCCCC5)nc4)cc3c21 + Cc1[nH]c2ccc(F)cc2c1-c1nc2c3cccnc3c3ncccc3c2[nH]1,IC50,second compound 0.0316 µM,> 10 µM
same,IC50,second compound 0.1 µM,> 10 µM
same,IC50,second compound 0.316 µM,> 10 µM
same,IC50,second compound 1 µM,> 10 µM
same,IC50,second compound 3.16 µM,> 10 µM
same,IC50,second compound 10 µM,> 10 µM
same,"viability, T/C",[1],102%
same,"viability, T/C","second compound 0.0316 µM, first compound 0.1 µM",94.9%
same,"viability, T/C",[2],106%
same,"viability, T/C","second compound 0.0316 µM, first compound 1 µM",95.5%
same,"viability, T/C","second compound 0.0316 µM, first compound 3.16 µM",101%
same,"viability, T/C","second compound 0.0316 µM, first compound 10 µM",83.6%
same,"viability, T/C",[3],108%
same,"viability, T/C","second compound 0.1 µM, first compound 0.1 µM",91.4%
same,"viability, T/C",[4],99.6%
same,"viability, T/C","second compound 0.1 µM, first compound 1 µM",104%
same,"viability, T/C","second compound 0.1 µM, first compound 3.16 µM",93.6%
same,"viability, T/C","second compound 0.1 µM, first compound 10 µM",89.2%
same,"viability, T/C",[5],83.3%
same,"viability, T/C","second compound 0.316 µM, first compound 0.1 µM",105%
same,"viability, T/C",[6],101%
same,"viability, T/C","second compound 0.316 µM, first compound 1 µM",89.5%
same,"viability, T/C","second compound 0.316 µM, first compound 3.16 µM",113%
same,"viability, T/C","second compound 0.316 µM, first compound 10 µM",98.5%
same,"viability, T/C",[7],87.9%
same,"viability, T/C","second compound 1 µM, first compound 0.1 µM",89.8%
same,"viability, T/C",[8],104%
same,"viability, T/C","second compound 1 µM, first compound 1 µM",102%
same,"viability, T/C","second compound 1 µM, first compound 3.16 µM",100%
same,"viability, T/C","second compound 1 µM, first compound 10 µM",97.7%
same,"viability, T/C",[9],91.7%
same,"viability, T/C","second compound 3.16 µM, first compound 0.1 µM",90.2%
same,"viability, T/C",[10],105%
same,"viability, T/C","second compound 3.16 µM, first compound 1 µM",103%
same,"viability, T/C","second compound 3.16 µM, first compound 3.16 µM",103%
same,"viability, T/C","second compound 3.16 µM, first compound 10 µM",96.3%
same,"viability, T/C",[11],96%
same,"viability, T/C","second compound 10 µM, first compound 0.1 µM",94.7%
same,"viability, T/C",[12],104%
same,"viability, T/C","second compound 10 µM, first compound 1 µM",104%
same,"viability, T/C","second compound 10 µM, first compound 3.16 µM",89%
same,"viability, T/C","second compound 10 µM, first compound 10 µM",93.3%
